Measured values: patent US20250019375A1, “BENZOTHIAZOLE DYES” (Detect, Inc., priority 2023, published 2025)

How the values were obtained:
[1] = system: Neisseria gonorrhoeae (AQ10); experiment: qLAMP assay, Neisseria gonorrhoeae (AQ10), time to positive (Tp); format: biochemical
Method: Compounds were added to the LAMP reaction mixture containing target-specific primers, dNTPs, DNA polymerase, reverse transcriptase, and the target RNA sequence. This reaction mixture was incubated at 62° C. (or the specified temperature (FIG. 4)) for at least 50 minutes and the increase in fluorescence was assessed to determine the time to positivity (Tp). Data shown in FIGS. 1A-B support that these compounds are compatible with LAMP assays at concentrations up to 16 μM.
For the Neisseria gonorrhoeae (AQ10), there is detrimental impact on Tp observed with Compound 5 at ≥8 μM where a delay in Tp is observed.
Data shown is under clean and eluted vaginal swabs (contrived conditions). Good performance is observed at ≥61° C. There is detrimental impact on performance at <60° C. (delay in Tp).

[2] = Accelerated stability of lyophilized dye, assayed by HPLC; format: physicochemical
Method: It was also determined that Compound 3 is stable under accelerated stability conditions from lyophilized chemistry (FIG. 5). As assayed by HPLC, Compound 3 is stable under these conditions at the 3-month time point (98.7±0.33% remaining), corresponding to 6 months stability at room temperature (15-30° C.).

[3] = system: double stranded DNA (dsDNA); experiment: Absorption/emission spectra of dyes with dsDNA; format: physicochemical; conditions: for Stokes shift: 2 μM dye + 2 μM hairpin DNA; for Stokes shift / λem: pH 8.8 isoamplification buffer; for λabs: absorption recorded at 25±2° C.; for λem: fluorescence at 62±2° C.
Method: FIG. 6A-F show absorption/emission spectra of dyes with double stranded DNA (dsDNA).
Fluorescence readings (FIGS. 6A-F) were performed using 10 mm path length, 700 μL quartz cuvettes on Horiba Fluorolog-Q fluorometer instrument. All measurements were taken at elevated temperature (62±2° C.) in pH 8.8 isoamplification buffer containing 20 mM Tris-HCl. For each measurement, 2 μM of dye was combined with 2 μM of hairpin DNA. Absorption spectra were recorded at ambient temperature (25±2° C.) on a DeNovix DS-11 spectrophotometer instrument. Normalized spectra are shown for clarity. The benzothiazole dye compounds have large Stokes shift >40 nm, which allows a substantial portion of the output fluorescence to pass through the filter covering the photodiode detection component of the device.

[4] = clean and eluted vaginal swabs (contrived conditions)

Structure (SMILES) | temperature of good performance [1, 4] [°C] | temperature with detrimental impact on performance (delay in Tp) [1, 4] [°C] | % remaining ([2]; 40° C., lyophilized, 3-month time point, HPLC) [%] | corresponding stability at room temperature ([2]; room temperature (15-30° C.), extrapolated from 3 months accelerated conditions) [months] | Stokes shift [3] [nm] | λabs [3] [nm] | λem [3] [nm] | concentration with detrimental impact on Tp (delay in Tp) ([1]; Neisseria gonorrhoeae (AQ10) LAMP, 62° C.) [µM]
COc1ccc2c(c1)S/C(=C\c1cc[n+](C)c(N3CCOCC3)c1)N2C [Compound 3] | ≥ 61 | < 60 | 98.7±0.33 | 6 | 50 | 448 | 498 | –
COc1ccc2c(c1)S/C(=C\c1cc[n+](C)c(-c3ccccc3)c1)N2C [Compound 5] | – | – | – | – | – | – | – | ≥ 8
CN1/C(=C/c2cc[n+](C)c(N3CCOCC3)c2)Sc2ccccc21 [Compound 8] | – | – | – | – | 38 | 442 | 480 | –
CN(C)c1cc(/C=C2\Sc3ccccc3N2C)cc[n+]1C [Compound 10] | – | – | – | – | 38 | 443 | 481 | –
COc1ccc2c(c1)S/C(=C\c1cc[n+](C)c3ccccc13)N2C [Compound 11] | – | – | – | – | 43 | 510 | 553 | –
